This note sets out measurements from patent US11434221B2, “Pyrazine-4-carbamate or -urea derivatives as herbicides” (Syngenta Participations AG, priority 2017, dated 2022).

One assay relates to Alopecurus myosuroides (ALOMY). In words: Pre-emergence herbicidal activity, glasshouse pot test. The assay is classed as in vivo. The arrangement: key: 5=total damage to plant; 0=no damage to plant. The note with it: Rate 1000 g/ha; sprayed one day after sowing; evaluated after 13 days. In outline: (§1)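 Seeds sown in standard soil in pots, kept one day in glasshouse (24/16 °C day/night, 14 h light, 65% humidity), then sprayed pre-emergence with aqueous solution from acetone/water (50:50) formulation with 0.5% Tween 20. Grown under same conditions, watered twice daily; damage scored after 13 days (0 = none, 5 = total).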
Turning to `C#Cc1nc(-c2cncc(F)c2)cnc1N(C(=O)OC(C)(C)C)C(=O)OC(C)(C)C` [Compound H29], the “Control of weed species after pre-emergence application, ALOMY (damage score 0-5)” value was determined as 0.
Take `CC(C)(C)OC(=O)Nc1ncc(-c2cncnc2)nc1C(F)F` [Compound H30]: the “Control of weed species after pre-emergence application, ALOMY (damage score 0-5)” value worked out at 0.
Turning to `CC(C)(C)OC(=O)N(C(=O)OC(C)(C)C)c1ncc(-c2cncnc2)nc1C(F)F` [Compound H31], the “Control of weed species after pre-emergence application, ALOMY (damage score 0-5)” value is given as 2.

For the next assay, the system named is Setaria faberi (SETFA). The assay is described as above. Format: in vivo. Also on record: key: 5=total damage to plant; 0=no damage to plant. Particulars: Rate 1000 g/ha; sprayed one day after sowing; evaluated after 13 days. In outline:
as §1
As to `C#Cc1nc(-c2cncc(F)c2)cnc1N(C(=O)OC(C)(C)C)C(=O)OC(C)(C)C` [Compound H29], the “Control of weed species after pre-emergence application, SETFA (damage score 0-5)” value came out at 0.
Consider `CC(C)(C)OC(=O)Nc1ncc(-c2cncnc2)nc1C(F)F` [Compound H30], for which the “Control of weed species after pre-emergence application, SETFA (damage score 0-5)” value worked out at 4.
On the same count and under the same terms, with `CC(C)(C)OC(=O)N(C(=O)OC(C)(C)C)c1ncc(-c2cncnc2)nc1C(F)F` [Compound H31] the figure was 2.

In the next assay the test system is Lolium perenne (LOLPE). The assay is described as above. Format: in vivo. The arrangement: key: 5=total damage to plant; 0=no damage to plant. The note with it: Rate 1000 g/ha; sprayed one day after sowing; evaluated after 13 days. In outline: as §1
`C#Cc1nc(-c2cncc(F)c2)cnc1N(C(=O)OC(C)(C)C)C(=O)OC(C)(C)C` [Compound H29]: the “Control of weed species after pre-emergence application, LOLPE (damage score 0-5)” value was 0.
For `CC(C)(C)OC(=O)Nc1ncc(-c2cncnc2)nc1C(F)F` [Compound H30], the “Control of weed species after pre-emergence application, LOLPE (damage score 0-5)” value was 1.
On to `CC(C)(C)OC(=O)N(C(=O)OC(C)(C)C)c1ncc(-c2cncnc2)nc1C(F)F` [Compound H31], for which the “Control of weed species after pre-emergence application, LOLPE (damage score 0-5)” value was determined as 0.

The test system of a further assay is Avena fatua (AVEFA). Described as above. The assay is classed as in vivo. The arrangement: key: 5=total damage to plant; 0=no damage to plant. Particulars: Rate 1000 g/ha; sprayed one day after sowing; evaluated after 13 days. The method in brief: as §1
As to `C#Cc1nc(-c2cncc(F)c2)cnc1N(C(=O)OC(C)(C)C)C(=O)OC(C)(C)C` [Compound H29], the “Control of weed species after pre-emergence application, AVEFA (damage score 0-5)” value is given as 0.
Consider `CC(C)(C)OC(=O)Nc1ncc(-c2cncnc2)nc1C(F)F` [Compound H30], for which the “Control of weed species after pre-emergence application, AVEFA (damage score 0-5)” value was determined as 0.
`CC(C)(C)OC(=O)N(C(=O)OC(C)(C)C)c1ncc(-c2cncnc2)nc1C(F)F` [Compound H31]: the “Control of weed species after pre-emergence application, AVEFA (damage score 0-5)” value turned out to be 1.

For a further assay, the system named is Echinochloa crus-galli (ECHCG). Described as above. The assay is classed as in vivo. The arrangement: key: 5=total damage to plant; 0=no damage to plant. The note with it: Rate 1000 g/ha; sprayed one day after sowing; evaluated after 13 days. In outline:
as §1
Consider `C#Cc1nc(-c2cncc(F)c2)cnc1N(C(=O)OC(C)(C)C)C(=O)OC(C)(C)C` [Compound H29], for which the “Control of weed species after pre-emergence application, ECHCG (damage score 0-5)” value was 0.
`CC(C)(C)OC(=O)Nc1ncc(-c2cncnc2)nc1C(F)F` [Compound H30]: the “Control of weed species after pre-emergence application, ECHCG (damage score 0-5)” value was determined as 3.
Take `CC(C)(C)OC(=O)N(C(=O)OC(C)(C)C)c1ncc(-c2cncnc2)nc1C(F)F` [Compound H31]: the “Control of weed species after pre-emergence application, ECHCG (damage score 0-5)” value is 2.

The test system of the next assay is Triticum aestivium (TRZAW). Described as above. Format: in vivo. Also on record: key: 5=total damage to plant; 0=no damage to plant. The note with it: Rate 1000 g/ha; sprayed one day after sowing; evaluated after 13 days. The method in brief:
as §1
As for `C#Cc1nc(-c2cncc(F)c2)cnc1N(C(=O)OC(C)(C)C)C(=O)OC(C)(C)C` [Compound H29], the “Control of weed species after pre-emergence application, TRAZW (damage score 0-5)” value is listed as 0.
Take `CC(C)(C)OC(=O)Nc1ncc(-c2cncnc2)nc1C(F)F` [Compound H30]: the “Control of weed species after pre-emergence application, TRAZW (damage score 0-5)” value is 1.
On to `CC(C)(C)OC(=O)N(C(=O)OC(C)(C)C)c1ncc(-c2cncnc2)nc1C(F)F` [Compound H31], for which the “Control of weed species after pre-emergence application, TRAZW (damage score 0-5)” value was found to be 0.

The subject of the next assay is Alopecurus myosuroides (ALOMY). In words: Post-emergence herbicidal activity, glasshouse pot test. The arrangement: key: 5=total damage to plant; 0=no damage to plant. Particulars: Rate 1000 g/ha; sprayed after 8 days cultivation; evaluated after 13 days. The assay is classed as in vivo. The method in brief: (§2)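 Post-emergence spray, 8-day-old pot-grown plants; vehicle acetone/water 50:50 + 0.5% Tween 20. Glasshouse 24/16° C day/night, 14 h light, 65% RH, watered 2×/day. Visual damage rated day 13, 0–5.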
Regarding `C#Cc1nc(-c2cncc(F)c2)cnc1N(C(=O)OC(C)(C)C)C(=O)OC(C)(C)C` [Compound H29], the “Control of weed species after post-emergence application, ALOMY (damage score 0-5)” value was 0.
`CC(C)(C)OC(=O)Nc1ncc(-c2cncnc2)nc1C(F)F` [Compound H30]: the “Control of weed species after post-emergence application, ALOMY (damage score 0-5)” value worked out at 1.
Turning to `CC(C)(C)OC(=O)N(C(=O)OC(C)(C)C)c1ncc(-c2cncnc2)nc1C(F)F` [Compound H31], the “Control of weed species after post-emergence application, ALOMY (damage score 0-5)” value is recorded as 1.

Another assay concerns Setaria faberi (SETFA). The description is as above. The assay is classed as in vivo. The note with it: Rate 1000 g/ha; sprayed after 8 days cultivation; evaluated after 13 days. The arrangement: key: 5=total damage to plant; 0=no damage to plant. The method in brief:
as §2
Turning to `C#Cc1nc(-c2cncc(F)c2)cnc1N(C(=O)OC(C)(C)C)C(=O)OC(C)(C)C` [Compound H29], the “Control of weed species after post-emergence application, SETFA (damage score 0-5)” value is reported as 1.
For the compound `CC(C)(C)OC(=O)Nc1ncc(-c2cncnc2)nc1C(F)F` [Compound H30], the “Control of weed species after post-emergence application, SETFA (damage score 0-5)” value was determined as 4.
With `CC(C)(C)OC(=O)N(C(=O)OC(C)(C)C)c1ncc(-c2cncnc2)nc1C(F)F` [Compound H31], the “Control of weed species after post-emergence application, SETFA (damage score 0-5)” value was 5.

A further assay relates to Lolium perenne (LOLPE). The assay is described as above. The assay is classed as in vivo. The arrangement: key: 5=total damage to plant; 0=no damage to plant. Particulars: Rate 1000 g/ha; sprayed after 8 days cultivation; evaluated after 13 days. The method in brief: as §2
As to `C#Cc1nc(-c2cncc(F)c2)cnc1N(C(=O)OC(C)(C)C)C(=O)OC(C)(C)C` [Compound H29], the “Control of weed species after post-emergence application, LOLPE (damage score 0-5)” value is on record as 1.
The same measure, in the same setting: with `CC(C)(C)OC(=O)Nc1ncc(-c2cncnc2)nc1C(F)F` [Compound H30] the figure was 2.
Turning to `CC(C)(C)OC(=O)N(C(=O)OC(C)(C)C)c1ncc(-c2cncnc2)nc1C(F)F` [Compound H31], the “Control of weed species after post-emergence application, LOLPE (damage score 0-5)” value turned out to be 2.

The subject of another assay is Avena fatua (AVEFA). The assay is described as above. Format: in vivo. Also on record: key: 5=total damage to plant; 0=no damage to plant. Particulars: Rate 1000 g/ha; sprayed after 8 days cultivation; evaluated after 13 days. In outline:
as §2
For `C#Cc1nc(-c2cncc(F)c2)cnc1N(C(=O)OC(C)(C)C)C(=O)OC(C)(C)C` [Compound H29], the “Control of weed species after post-emergence application, AVEFA (damage score 0-5)” value amounted to 0.
Still for that read-out and setting: the figure for `CC(C)(C)OC(=O)Nc1ncc(-c2cncnc2)nc1C(F)F` [Compound H30] is 3.
Same read-out and setting: with `CC(C)(C)OC(=O)N(C(=O)OC(C)(C)C)c1ncc(-c2cncnc2)nc1C(F)F` [Compound H31] the figure was 3.

For another assay, the system named is Echinochloa crus-galli (ECHCG). Described as above. The assay is classed as in vivo. The arrangement: key: 5=total damage to plant; 0=no damage to plant. The note with it: Rate 1000 g/ha; sprayed after 8 days cultivation; evaluated after 13 days. The method in brief:
as §2
For the compound `C#Cc1nc(-c2cncc(F)c2)cnc1N(C(=O)OC(C)(C)C)C(=O)OC(C)(C)C` [Compound H29], the “Control of weed species after post-emergence application, ECHCG (damage score 0-5)” value is recorded as 1.
On the same count and under the same terms, with `CC(C)(C)OC(=O)Nc1ncc(-c2cncnc2)nc1C(F)F` [Compound H30] the figure was 4.
For the compound `CC(C)(C)OC(=O)N(C(=O)OC(C)(C)C)c1ncc(-c2cncnc2)nc1C(F)F` [Compound H31], the “Control of weed species after post-emergence application, ECHCG (damage score 0-5)” value was found to be 5.

In the next assay the test system is Triticum aestivium (TRZAW). The assay is described as above. The assay is classed as in vivo. Also on record: key: 5=total damage to plant; 0=no damage to plant. Particulars: Rate 1000 g/ha; sprayed after 8 days cultivation; evaluated after 13 days. The method in brief:
as §2
As to `C#Cc1nc(-c2cncc(F)c2)cnc1N(C(=O)OC(C)(C)C)C(=O)OC(C)(C)C` [Compound H29], the “Control of weed species after post-emergence application, TRAZW (damage score 0-5)” value worked out at 1.
On the same count and under the same terms, with `CC(C)(C)OC(=O)Nc1ncc(-c2cncnc2)nc1C(F)F` [Compound H30] the figure was 1.
For `CC(C)(C)OC(=O)N(C(=O)OC(C)(C)C)c1ncc(-c2cncnc2)nc1C(F)F` [Compound H31], the “Control of weed species after post-emergence application, TRAZW (damage score 0-5)” value worked out at 1.
